Measurements published in patent US20100222334A1 (priority 2007, published 2010).

Tests used:
[1] = human, in vivo
Protocol: In order to determine the relative bioavailability, an open-label, single dose, two-period, crossover study is conducted in 24 healthy subjects.

[2] = Bioavailability of new 80 mg valsartan pediatric tablet relative to 80 mg commercial tablet, single-dose crossover; conditions: in the same study
Protocol: The study is conducted in 24 healthy subjects using an open-label, single-dose, two period, randomized, crossover study design.

[3] = administered as immediate release tablet formulation (Diovan); cited from earlier work

intersubject variability (CV %) for the Cmax and AUCτ [1]: 24-40%
variability of valsartan PK [2]: 30-50%
Structure (SMILES): CCCCC(=O)N(Cc1ccc(-c2ccccc2-c2nnn[nH]2)cc1)[C@H](C(=O)O)C(C)C [Valsartan, (S)—N-(1-carboxy-2-methylprop-1-yl)-N-pentanoyl-N-[2′-(1H-tetrazol-5-yl)biphenyl-4-ylmethyl]amine]
bioavailability [3]: around 30%
